# In patent publication US4668689A, “Glutarimide derivatives for treating oestrogen-dependent tumors” (National Research Development Corporation, priority 1984, dated 1987):
# Where two headings read alike, the source gives them in different places.
# Tests used:
# desmolase [1] = target: T1, desmolase (Bos taurus, UniProt P00189); experiment: Desmolase inhibition, (26-^14C)-cholesterol as substrate (7 micromolar), mitochondrial fraction of bovine adrenal cortex; format: biochemical
# T1 construct: The mitochondrial fraction of bovine adrenal cortex provided the source of desmolase; from tissue; host or cells: bovine adrenal cortex, mitochondrial fraction
# T1 sequence (P00189 40-520): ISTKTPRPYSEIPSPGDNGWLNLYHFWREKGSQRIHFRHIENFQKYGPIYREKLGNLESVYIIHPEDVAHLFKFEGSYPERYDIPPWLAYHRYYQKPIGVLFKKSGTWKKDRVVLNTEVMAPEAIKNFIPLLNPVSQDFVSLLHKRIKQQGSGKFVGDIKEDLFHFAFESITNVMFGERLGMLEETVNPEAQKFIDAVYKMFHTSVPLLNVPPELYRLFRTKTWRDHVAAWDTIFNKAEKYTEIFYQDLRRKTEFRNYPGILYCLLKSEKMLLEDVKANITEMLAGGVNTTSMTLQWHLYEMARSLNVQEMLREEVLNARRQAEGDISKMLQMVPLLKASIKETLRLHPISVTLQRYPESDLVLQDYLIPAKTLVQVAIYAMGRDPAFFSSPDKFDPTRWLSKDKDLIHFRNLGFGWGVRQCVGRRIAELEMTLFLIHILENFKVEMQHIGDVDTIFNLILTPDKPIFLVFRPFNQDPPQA
# aromatase [2] = target: T2, aromatase (Homo sapiens, UniProt P11511); experiment: Aromatase inhibition, (1,2-^3H) testosterone as substrate (1.5 micromolar), microsomal fraction of human placental tissue; format: biochemical; settings: for IC50: 1.5 micromolar (^3H) testosterone; for IC50 / IC50 Aromatase Testosterone: 30° C., "None" = no inhibition; for IC50 Aromatase Testosterone: […] (^3H) testosterone; for aromatase inhibition (in words): substrate not stated
# T2 construct: Aromatase was obtained from the microsomal fraction of human placental tissue; from tissue; host or cells: human placenta, microsomal fraction
# T2 sequence (P11511 1-503): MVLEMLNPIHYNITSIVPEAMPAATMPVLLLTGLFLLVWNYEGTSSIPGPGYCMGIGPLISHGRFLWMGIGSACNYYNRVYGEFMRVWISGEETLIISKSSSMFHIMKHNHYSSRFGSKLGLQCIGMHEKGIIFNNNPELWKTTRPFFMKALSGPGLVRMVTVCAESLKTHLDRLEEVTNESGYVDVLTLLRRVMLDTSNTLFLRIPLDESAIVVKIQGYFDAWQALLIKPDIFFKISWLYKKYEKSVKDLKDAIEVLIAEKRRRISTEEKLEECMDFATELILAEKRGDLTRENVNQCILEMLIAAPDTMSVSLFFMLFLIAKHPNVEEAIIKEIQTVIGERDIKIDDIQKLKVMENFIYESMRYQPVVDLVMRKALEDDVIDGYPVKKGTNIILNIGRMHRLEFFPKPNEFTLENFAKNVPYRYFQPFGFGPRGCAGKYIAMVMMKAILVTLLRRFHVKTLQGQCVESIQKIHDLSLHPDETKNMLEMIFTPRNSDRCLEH
# [3] = CNS (sedative-hypnotic) activity; settings: in vivo
# desmolase [4] = settings: literature; cited from earlier work
# aromatase [5] = target: T2, aromatase; experiment: Aromatase inhibition, (1,2-^3H) androstene-3,17-dione as substrate (0.38 micromolar), microsomal fraction of human placental tissue; format: biochemical; settings: 0.38 micromolar (^3H) androstene-3,17-dione, 30° C., "None" = no inhibition; for IC50: read-out: IC50 Aromatase Androstenedione
# [6] = 7 micromolar (^14C) cholesterol, 30° C., "None" = no inhibition
# [7] = 7 micromolar (^14C) cholesterol, 30° C., "None" = no inhibition, read-out: IC50 Desmolase
IC50 Desmolase (desmolase [1]; [6]),IC50 (aromatase [2]) [µM],Compound,also measured
none,3.2,"CCCCCC1(c2ccncc2)CCC(=O)NC1=O (centres unmarked) [R1=n-C5 H11, R2=H]",
none,,"CCCCCCCCC1(c2ccncc2)CCC(=O)NC1=O (centres unmarked) [R1=n-C8 H17, R2=H]",
,,"O=C1CCC(CCC(F)(F)C(F)(F)C(F)(F)C(F)(F)C(F)(F)C(F)(F)F)(c2ccncc2)C(=O)N1 (centres unmarked) [R1=(CH2)2 (CF2)5 CF3, R2=H, reference compound]",IC50 (desmolase [1]): 93 µM; IC50 Aromatase Androstenedione (aromatase [5]): none; IC50 Aromatase Testosterone (aromatase [2]): none
none,,"CC1(c2ccncc2)CCC(=O)NC1=O (centres unmarked) [R1=CH3, R2=H, reference compound]",
,,"CCCCCCCN1C(=O)CCC(CC)(c2ccncc2)C1=O (centres unmarked) [R1=C2 H5, R2=n-C7 H15]",IC50 (desmolase [1]; [7]): 210 µM
none,,"CCCN1C(=O)CCC(CC)(c2ccncc2)C1=O (centres unmarked) [R1=C2 H5, R2=n-C3 H7]",
none,11,"CCC1(c2ccncc2)CCC(=O)N(CCC(F)(F)F)C1=O (centres unmarked) [R1=C2 H5, R2=CH2 CH2 CF3]",IC50 (aromatase [5]): 42 µM
none,,"CCCCC1(c2ccncc2)CCC(=O)NC1=O (centres unmarked) [R1=n-C4 H9, R2=H]",
none,,"CCC1(c2ccncc2)CCC(=O)N(C)C1=O (centres unmarked) [R1=C2 H5, R2=CH3]",
none,3.8,"CCCCCCC1(c2ccncc2)CCC(=O)NC1=O (centres unmarked) [R1=n-C6 H13, R2=H]",
,,"CCCCCCCCCCN1C(=O)CCC(CC)(c2ccncc2)C1=O (centres unmarked) [R1=C2 H5, R2=n-C10 H21]",IC50 (desmolase [1]; [7]): 340 µM
,10,"CCCCCCCCC1(c2ccncc2)CCC(=O)N(CCCCCC)C1=O (centres unmarked) [R1=n-C8 H17, R2=n-C6 H13, reference compound]",desmolase inhibition (in words) (desmolase [1]): significant desmolase inhibition; IC50 (desmolase [1]; [7]): 73 µM
,,"CCCCCN1C(=O)CCC(CC)(c2ccncc2)C1=O (centres unmarked) [R1=C2 H5, R2=n-C5 H11]",IC50 (desmolase [1]; [7]): 209 µM
,14,"CCC1(c2ccncc2)CCC(=O)N(CC(F)(F)F)C1=O (centres unmarked) [R1=C2 H5, R2=CH2 CF3]",IC50 (desmolase [1]; [7]): > 350 µM; IC50 (aromatase [5]): 31 µM
,,"CCCCCCCCC1(c2ccncc2)CCC(=O)N(CCCC)C1=O (centres unmarked) [R1=n-C8 H17, R2=n-C4 H9, reference compound]",IC50 (desmolase [1]; [7]): 106 µM; IC50 Aromatase Testosterone (aromatase [2]): none; aromatase inhibition (in words) (aromatase [2]): no aromatase inhibition
none,> 90,"CN1C(=O)CCC(C)(c2ccncc2)C1=O (centres unmarked) [R1=CH3, R2=CH3, reference compound]",

IC50 Desmolase (desmolase [1]; [6]),IC50 (aromatase [2]) [µM],Compound,also measured
none,9,"CCC1(c2ccncc2)CCC(=O)N(CC2CCCCC2)C1=O (centres unmarked) [R1=C2 H5, R2=[drawing 7]]",
none,2.9,"O=C1CCC(CCC(F)(F)F)(c2ccncc2)C(=O)N1 (centres unmarked) [R1=(CH2)2 CF3, R2=H]",IC50 (aromatase [5]): 7 µM
none,,"CCCCN1C(=O)CCC(CC)(c2ccncc2)C1=O (centres unmarked) [R1=C2 H5, R2=n-C4 H9]",
none,,"CCCCCCCCCC1(c2ccncc2)CCC(=O)NC1=O (centres unmarked) [R1=n-C9 H19, R2=H]",
none,2,"CCCCCCCC1(c2ccncc2)CCC(=O)NC1=O (centres unmarked) [R1=n-C7 H15, R2=H]",
none,,"CCCCCCN1C(=O)CCC(CC)(c2ccncc2)C1=O (centres unmarked) [R1=C2 H5, R2=n-C6 H13]",
,,"CCCCCCCCN1C(=O)CCC(CC)(c2ccncc2)C1=O (centres unmarked) [R1=C2 H5, R2=n-C8 H17]",IC50 (desmolase [1]; [7]): 110 µM
,,"CCCCCCCCN1C(=O)CCC(CCCCCCCC)(c2ccncc2)C1=O (centres unmarked) [R1=n-C8 H17, R2=n-C8 H17, reference compound]",IC50 (desmolase [1]; [7]): 169 µM; IC50 Aromatase Testosterone (aromatase [2]): none
none,2.1,"CCCCN1C(=O)CCC(CCCC)(c2ccncc2)C1=O (centres unmarked) [R1=n-C4 H9, R2=n-C4 H9]",
none,2.1,"CCCCCCC1(c2ccncc2)CCC(=O)N(CC)C1=O (centres unmarked) [R1=n-C6 H13, R2=n-C2 H5]",
,,"CCCCCCCCCN1C(=O)CCC(CC)(c2ccncc2)C1=O (centres unmarked) [R1=C2 H5, R2=n-C9 H19]",IC50 (desmolase [1]; [7]): 175 µM; aromatase inhibition (in words) (aromatase [2]): dramatic increase
,,"CCN1C(=O)CCC(CC)(c2ccncc2)C1=O (centres unmarked) [R1=C2 H5, R2=n-C2 H5, reference compound]",IC50 (desmolase [1]; [7]): 92 µM
none,,"CCCC1(c2ccncc2)CCC(=O)NC1=O (centres unmarked) [R1=n-C3 H7, R2=H]",
,,CCC1(c2ccc(N)cc2)CCC(=O)NC1=O (centres unmarked) [Aminoglutethimide],inhibition of desmolase (desmolase [4]): also inhibits the enzyme desmolase
,,"O=C1CCC(CCC(F)(F)C(F)(F)C(F)(F)C(F)(F)C(F)(F)C(F)(F)C(F)(F)C(F)(F)F)(c2ccncc2)C(=O)N1 (centres unmarked) [R1=(CH2)2 (CF2)7 CF3, R2=H, reference compound]",IC50 (desmolase [1]): 79 µM; IC50 Aromatase Androstenedione (aromatase [5]): none

Compound,IC50 Desmolase (desmolase [1]; [6]),IC50 (aromatase [2]) [µM],also measured
"CCC1(c2ccncc2)CCC(=O)NC1=O (centres unmarked) [Pyridoglutethimide, 3-ethyl-3-(4-pyridyl)piperidine-2,6-dione]",none,,CNS (sedative-hypnotic) activity [3]: little or no CNS (sedative-hypnotic) activity; inhibition of desmolase (desmolase [4]): not desmolase
"CCC1(c2ccncc2)CCC(=O)N(CC(F)(F)C(F)(F)C(F)(F)F)C1=O (centres unmarked) [R1=C2 H5, R2=CH2 (CF2)2 CF3]",none,19,IC50 (aromatase [5]): 106 µM
"CCC1(c2ccncc2)CCC(=O)N(CCC(F)(F)C(F)(F)C(F)(F)F)C1=O (centres unmarked) [R1=C2 H5, R2=(CH2)2 (CF2)2 CF3]",,3,IC50 (desmolase [1]): 240 µM; IC50 (aromatase [5]): 15 µM
"O=C1CCC(CCC(F)(F)C(F)(F)C(F)(F)C(F)(F)F)(c2ccncc2)C(=O)N1 (centres unmarked) [R1=(CH2)2 (CF2)3 CF3, R2=H, reference compound]",none,18,IC50 (aromatase [5]): 22 µM
"CCC1(c2ccncc2)CCC(=O)N(CCC(F)(F)C(F)(F)C(F)(F)C(F)(F)F)C1=O (centres unmarked) [R1=C2 H5, R2=(CH2)2 (CF2)3 CF3]",,9,IC50 (desmolase [1]): 120 µM; IC50 (aromatase [5]): 9 µM
"O=C1CCC(CCC(F)(F)C(F)(F)C(F)(F)F)(c2ccncc2)C(=O)N1 (centres unmarked) [R1=(CH2)2 (CF2)2 CF3, R2=H]",none,18,IC50 (aromatase [5]): 22 µM
"CCC1(c2ccncc2)CCC(=O)N(CCC(F)(F)C(F)(F)C(F)(F)C(F)(F)C(F)(F)C(F)(F)F)C1=O (centres unmarked) [R1=C2 H5, R2=(CH2)2 (CF2)5 CF3]",,34,IC50 (desmolase [1]): 145 µM; IC50 (aromatase [5]): 23 µM
"CCC1(c2ccncc2)CCC(=O)N(CCC(F)(F)C(F)(F)C(F)(F)C(F)(F)C(F)(F)C(F)(F)C(F)(F)C(F)(F)F)C1=O (centres unmarked) [R1=C2 H5, R2=(CH2)2 (CF2)7 CF3]",,15,IC50 (desmolase [1]): 150 µM; IC50 Aromatase Androstenedione (aromatase [5]): none
